Test system: LG0703-F948-PDC complex spheroid viability
Experiment: Anticancer human tumor LG0703-F948-PDC patient-derived lung adenocarcinoma cell line growth inhibition
Conditions: for IC50: curve of first compound; for viability, T/C: stronger effect = lower value; active = viability on the fitted dose curve at most 10% of control; inactive = the rest
Procedure, shortened: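 Multicellular complex spheroids of tumor cells with human endothelial cells (HUVEC) and mesenchymal stem cells; the LSD1 inhibitor iadademstat was combined with standard-of-care or investigational agents. Top concentration at or near clinical Cmax, half-log dilutions; final DMSO ≤0.25%.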

[1] = second compound 0.1 µM, first compound 0.000316 µM
[2] = second compound 0.1 µM, first compound 0.001 µM
[3] = second compound 0.1 µM, first compound 0.00316 µM
[4] = second compound 0.1 µM, first compound 0.01 µM
[5] = second compound 0.1 µM, first compound 0.0316 µM
[6] = second compound 0.1 µM, first compound 0.1 µM
[7] = second compound 0.316 µM, first compound 0.000316 µM
[8] = second compound 0.316 µM, first compound 0.001 µM
[9] = second compound 0.316 µM, first compound 0.00316 µM
[10] = second compound 0.316 µM, first compound 0.01 µM
[11] = second compound 0.316 µM, first compound 0.0316 µM
[12] = second compound 0.316 µM, first compound 0.1 µM
[13] = second compound 1 µM, first compound 0.000316 µM
[14] = second compound 1 µM, first compound 0.001 µM
[15] = second compound 1 µM, first compound 0.00316 µM
[16] = second compound 1 µM, first compound 0.01 µM
[17] = second compound 1 µM, first compound 0.0316 µM
[18] = second compound 1 µM, first compound 0.1 µM
[19] = second compound 3.16 µM, first compound 0.000316 µM
[20] = second compound 3.16 µM, first compound 0.001 µM
[21] = second compound 3.16 µM, first compound 0.00316 µM
[22] = second compound 3.16 µM, first compound 0.01 µM
[23] = second compound 3.16 µM, first compound 0.0316 µM
[24] = second compound 3.16 µM, first compound 0.1 µM
[25] = second compound 10 µM, first compound 0.000316 µM
[26] = second compound 10 µM, first compound 0.001 µM
[27] = second compound 10 µM, first compound 0.00316 µM
[28] = second compound 10 µM, first compound 0.01 µM
[29] = second compound 10 µM, first compound 0.0316 µM
[30] = second compound 10 µM, first compound 0.1 µM
[31] = second compound 0.1 µM, first compound 0.00949 µM
[32] = second compound 0.1 µM, first compound 0.03 µM
[33] = second compound 0.1 µM, first compound 0.0949 µM
[34] = second compound 0.1 µM, first compound 0.3 µM
[35] = second compound 0.1 µM, first compound 0.949 µM
[36] = second compound 0.1 µM, first compound 3 µM
[37] = second compound 0.316 µM, first compound 0.00949 µM
[38] = second compound 0.316 µM, first compound 0.03 µM
[39] = second compound 0.316 µM, first compound 0.0949 µM
[40] = second compound 0.316 µM, first compound 0.3 µM
[41] = second compound 0.316 µM, first compound 0.949 µM
[42] = second compound 0.316 µM, first compound 3 µM
[43] = second compound 1 µM, first compound 0.00949 µM
[44] = second compound 1 µM, first compound 0.03 µM
[45] = second compound 1 µM, first compound 0.0949 µM
[46] = second compound 1 µM, first compound 0.3 µM
[47] = second compound 1 µM, first compound 0.949 µM
[48] = second compound 1 µM, first compound 3 µM
[49] = second compound 3.16 µM, first compound 0.00949 µM
[50] = second compound 3.16 µM, first compound 0.03 µM
[51] = second compound 3.16 µM, first compound 0.0949 µM
[52] = second compound 3.16 µM, first compound 0.3 µM
[53] = second compound 3.16 µM, first compound 0.949 µM
[54] = second compound 3.16 µM, first compound 3 µM
[55] = second compound 10 µM, first compound 0.00949 µM
[56] = second compound 10 µM, first compound 0.03 µM
[57] = second compound 10 µM, first compound 0.0949 µM
[58] = second compound 10 µM, first compound 0.3 µM
[59] = second compound 10 µM, first compound 0.949 µM
[60] = second compound 10 µM, first compound 3 µM
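Also: spheroids exposed to agents for seven days before readout.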
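For viability, T/C in this document: 100% = DMSO vehicle control wells as normalization base.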

CC(C)CC(NC(=O)C(Cc1ccccc1)NC(=O)c1cnccn1)B(O)O (stereo not given) + NC1CC1c1ccc(-c2cccc(O)c2)cc1
active: viability, T/C [1] 6.46% | viability, T/C [2] 0.12% | viability, T/C [3] 0.04% | viability, T/C [4] 0.06% | viability, T/C [5] 0.03% | viability, T/C [6] 1.07% | viability, T/C [7] 7.13% | viability, T/C [8] 0.36% | viability, T/C [9] 0.54% | viability, T/C [10] 0.02% | viability, T/C [11] 0.31% | viability, T/C [12] 0.14% | viability, T/C [13] 4.36% | viability, T/C [14] 0.11% | viability, T/C [15] 0.85% | viability, T/C [16] 0.07% | viability, T/C [17] 0.95% | viability, T/C [18] 0.99% | viability, T/C [19] 4.22% | viability, T/C [20] 0.74% | viability, T/C [21] 0.05% | viability, T/C [22] 0.39% | viability, T/C [23] 0.09% | viability, T/C [24] 0.14% | viability, T/C [25] 1.18% | viability, T/C [26] 1.11% | viability, T/C [27] 0.6% | viability, T/C [28] 1.43% | viability, T/C [29] 0.9% | viability, T/C [30] 0.98%
< 0.316 nM: IC50 (second compound 0.1 µM) | IC50 (second compound 0.316 µM) | IC50 (second compound 1 µM) | IC50 (second compound 3.16 µM) | IC50 (second compound 10 µM)

CC(C)CC(NC(=O)CNC(=O)c1cc(Cl)ccc1Cl)B1OC(=O)CC(CC(=O)O)(C(=O)O)O1 (stereo not given) + NC1CC1c1ccc(-c2cccc(O)c2)cc1
3.08 nM: IC50 (second compound 0.316 µM)
active: viability, T/C [4] 9.87% | viability, T/C [5] 1.39% | viability, T/C [6] 0.35% | viability, T/C [10] 10.8% | viability, T/C [11] 1.68% | viability, T/C [12] 0.68% | viability, T/C [16] 8.76% | viability, T/C [17] 0.48% | viability, T/C [18] 0.25% | viability, T/C [22] 6.24% | viability, T/C [23] 0.66% | viability, T/C [24] 0.21% | viability, T/C [28] 3.08% | viability, T/C [29] 0.14% | viability, T/C [30] 0.2%
inactive: viability, T/C [1] 91.2% | viability, T/C [2] 102% | viability, T/C [3] 57.3% | viability, T/C [7] 102% | viability, T/C [8] 96.5% | viability, T/C [9] 47.9% | viability, T/C [13] 90.9% | viability, T/C [14] 106% | viability, T/C [15] 44.7% | viability, T/C [19] 93.9% | viability, T/C [20] 103% | viability, T/C [21] 49.6% | viability, T/C [25] 83.2% | viability, T/C [26] 96.4% | viability, T/C [27] 41.5%
3.82 nM: IC50 (second compound 0.1 µM)
2.83 nM: IC50 (second compound 1 µM)
3.13 nM: IC50 (second compound 3.16 µM)
2.58 nM: IC50 (second compound 10 µM)

COc1cc(Nc2ncc3c(n2)-c2ccc(Cl)cc2C(c2c(F)cccc2OC)=NC3)ccc1C(=O)O + NC1CC1c1ccc(-c2cccc(O)c2)cc1
181 nM: IC50 (second compound 10 µM)
active: viability, T/C (second compound 0.1 µM, first compound 1 µM) 3.58% | viability, T/C (second compound 0.316 µM, first compound 1 µM) 3.78% | viability, T/C (second compound 1 µM, first compound 1 µM) 3.36% | viability, T/C (second compound 3.16 µM, first compound 1 µM) 4.2% | viability, T/C (second compound 10 µM, first compound 1 µM) 6.35%
177 nM: IC50 (second compound 0.316 µM)
188 nM: IC50 (second compound 3.16 µM)
198 nM: IC50 (second compound 1 µM)
199 nM: IC50 (second compound 0.1 µM)
inactive: viability, T/C [3] 91.5% | viability, T/C [4] 85.6% | viability, T/C [5] 91.6% | viability, T/C [6] 76.1% | viability, T/C (second compound 0.1 µM, first compound 0.316 µM) 32.1% | viability, T/C [9] 95.3% | viability, T/C [10] 93.8% | viability, T/C [11] 80.8% | viability, T/C [12] 67.6% | viability, T/C (second compound 0.316 µM, first compound 0.316 µM) 33.5% | viability, T/C [15] 106% | viability, T/C [16] 100% | viability, T/C [17] 85.6% | viability, T/C [18] 70.5% | viability, T/C (second compound 1 µM, first compound 0.316 µM) 36.3% | viability, T/C [21] 95.5% | viability, T/C [22] 111% | viability, T/C [23] 94.2% | viability, T/C [24] 70.5% | viability, T/C (second compound 3.16 µM, first compound 0.316 µM) 33.1% | viability, T/C [27] 113% | viability, T/C [28] 97.6% | viability, T/C [29] 94.1% | viability, T/C [30] 64.8% | viability, T/C (second compound 10 µM, first compound 0.316 µM) 34.8%

NS(=O)(=O)OCC1CC(n2ccc3c(NC4CCc5ccccc54)ncnc32)CC1O (stereo not given) + NC1CC1c1ccc(-c2cccc(O)c2)cc1
683 nM: IC50 (second compound 0.1 µM)
559 nM: IC50 (second compound 1 µM) | IC50 (second compound 3.16 µM)
302 nM: IC50 (second compound 10 µM)
582 nM: IC50 (second compound 0.316 µM)
inactive: viability, T/C [31] 101% | viability, T/C [32] 113% | viability, T/C [33] 104% | viability, T/C [34] 75.2% | viability, T/C [35] 40.9% | viability, T/C [36] 19% | viability, T/C [37] 118% | viability, T/C [38] 104% | viability, T/C [39] 105% | viability, T/C [40] 73.9% | viability, T/C [41] 31.9% | viability, T/C [42] 21.6% | viability, T/C [43] 107% | viability, T/C [44] 117% | viability, T/C [45] 103% | viability, T/C [46] 68% | viability, T/C [47] 35.6% | viability, T/C [48] 18.6% | viability, T/C [49] 110% | viability, T/C [50] 105% | viability, T/C [51] 98.4% | viability, T/C [52] 70.4% | viability, T/C [53] 32.6% | viability, T/C [54] 16% | viability, T/C [55] 107% | viability, T/C [56] 104% | viability, T/C [57] 81.2% | viability, T/C [58] 50.8% | viability, T/C [59] 23.8% | viability, T/C [60] 12.6%

Nc1ccccc1NC(=O)c1ccc(CNC(=O)OCc2cccnc2)cc1 + NC1CC1c1ccc(-c2cccc(O)c2)cc1
active: viability, T/C [35] 1.36% | viability, T/C [36] 0.66% | viability, T/C [40] 7.98% | viability, T/C [41] 0.56% | viability, T/C [42] 0.86% | viability, T/C [46] 8.53% | viability, T/C [47] 0.73% | viability, T/C [48] 0.8% | viability, T/C [52] 6.55% | viability, T/C [53] 0.23% | viability, T/C [54] 0.32% | viability, T/C [59] 0.67% | viability, T/C [60] 0.19%
90.7 nM: IC50 (second compound 0.316 µM)
99 nM: IC50 (second compound 3.16 µM)
inactive: viability, T/C [31] 96.4% | viability, T/C [32] 85.7% | viability, T/C [33] 49.5% | viability, T/C [34] 14.9% | viability, T/C [37] 86% | viability, T/C [38] 74.1% | viability, T/C [39] 50.6% | viability, T/C [43] 80.9% | viability, T/C [44] 76.7% | viability, T/C [45] 45.1% | viability, T/C [49] 87.2% | viability, T/C [50] 80.4% | viability, T/C [51] 52.2% | viability, T/C [55] 95.3% | viability, T/C [56] 68.7% | viability, T/C [57] 42.5% | viability, T/C [58] 7.86%
94.8 nM: IC50 (second compound 0.1 µM)
79.7 nM: IC50 (second compound 1 µM)
63 nM: IC50 (second compound 10 µM)

O=C(C=Cc1cccc(S(=O)(=O)Nc2ccccc2)c1)NO + NC1CC1c1ccc(-c2cccc(O)c2)cc1
inactive: viability, T/C [31] 113% | viability, T/C [32] 74.8% | viability, T/C [33] 35.9% | viability, T/C [34] 8.61% | viability, T/C [37] 113% | viability, T/C [38] 83.5% | viability, T/C [39] 39.5% | viability, T/C [40] 8.31% | viability, T/C [43] 107% | viability, T/C [44] 93.9% | viability, T/C [45] 34.8% | viability, T/C [49] 92.3% | viability, T/C [50] 80.8% | viability, T/C [51] 42.2% | viability, T/C [55] 90% | viability, T/C [56] 86.7% | viability, T/C [57] 50%
active: viability, T/C [35] 1.29% | viability, T/C [36] 0.28% | viability, T/C [41] 1.3% | viability, T/C [42] 1.01% | viability, T/C [46] 7.01% | viability, T/C [47] 1.57% | viability, T/C [48] 0.1% | viability, T/C [52] 6.95% | viability, T/C [53] 1.69% | viability, T/C [54] 0.15% | viability, T/C [58] 7.51% | viability, T/C [59] 1.22% | viability, T/C [60] 1.1%
74.5 nM: IC50 (second compound 3.16 µM)
61.1 nM: IC50 (second compound 0.1 µM)
95.3 nM: IC50 (second compound 10 µM)
70.9 nM: IC50 (second compound 1 µM)
70.6 nM: IC50 (second compound 0.316 µM)
